How the values were obtained:
[1] = S. Mitsui et al., Chem. Pharm. Bull. (1976); cited from earlier work
Epstein-Barr virus = conditions: A. Kondo et al., Biosci. Biotech. Biochem. (1993); cited from earlier work
tumor = conditions: H. Itokawa et al., Planta Medica (1987); cited from earlier work
fungi = conditions: A. M. Janssen et al., Planta Medica 1985; cited from earlier work
xanthin oxidase = conditions: T. Noro et al., Chem. Pharm. Bull. (1988); cited from earlier work
oral cavity = experiment: Expert panel evaluation in foods, beverages and consumer healthcare products; format: in vivo, human; conditions: for character of mayonnaise base / character of sour cream / character of vegetable dip: 500 ppm compound; for character of toothpaste base: peppermint flavored toothpaste base; for character of sour cream: regular fat sour cream; for character of vegetable dip: vegetable soup mix with regular fat sour cream
Method: Mouthwash base was prepared by mixing 0.08 parts mouthwash flavor (commercially available from Givaudan Roure Flavors Ltd.), 0.5 parts Pluronic F-127, 0.5 parts polysorbate 20, 0.35 parts sodium lauryl sulfate, 5 parts glycerine, 0.015 parts sodium saccharin and 93.555 parts water. […] Toothpaste base (Opaque 13/02-5F) was flavored with peppermint flavor (Givaudan Roure peppermint flavor 10570-34) at 0.5% by weight. […] Mayonnaise base was prepared by mixing 59.8 parts whole egg, 24 parts vinegar (white, 5% acidity), 1.3 parts mustard, 2 parts sugar, 1 part salt and 219 parts vegetable oil. […] An onion dip was prepared by mixing a commercial package of onion soup mix (Lipton) with plain, regular fat sour cream and 1000 ppm of compound 9 as described and prepared according to example 9. […] 2.5 parts Maltrin M-10 (commercially available) was mixed with 0.05 parts pizza flavor (SNE Pizza Flavor 810841). 50 parts potato chips ([…]) were placed on a paper plate then microwaved for 30-60 seconds until surface oil glistened. […] A chewing gum was prepared according to methods known to those skilled in the art.

C=CC(OC(C)=O)c1ccc(OC(C)=O)cc1 (racemic) [Compound 1, (rac)-acetic acid 1-(4-acetoxy-phenyl)-allyl ester]
anti-ulcer activity [1]: anti-ulcer activity
inhibition of tumor promoter-induced Epstein-Barr virus activation (Epstein-Barr virus): potent inhibitor
anti-tumor activity (tumor): anti-tumor activity
anti-fungal activity (fungi): anti-fungal activity
inhibition of xanthin oxidase (xanthin oxidase): inhibit xanthin oxidase
character of mayonnaise base (oral cavity): warm/hot, spicy and pungent character
sensation imparted by mouthwash base (oral cavity; 100 ppm compound): warm/hot, spicy and pungent sensation
character of toothpaste base (oral cavity; 100 ppm compound): warm/hot, spicy and pungent character
character of sour cream (oral cavity): warm/hot, spicy and pungent character without a lingering effect
character of vegetable dip (oral cavity): warm/hot, peppery and pungent character without any lingering effect

C=CC(OC(C)=O)c1ccc(OC(C)=O)c(OC)c1 (racemic) [Compound 2, (rac)-acetic acid 1-(4-acetoxy-3-methoxphenyl)-allyl ester]
anti-tumor activity (tumor): anti-tumor activity
anti-fungal activity (fungi): anti-fungal activity
inhibition of xanthin oxidase (xanthin oxidase): inhibit xanthin oxidase
character of orange flavored chewing gum (oral cavity; chewing gum, 1 g compound in the batch): warm/hot, peppery and pungent character, again without any lingering effect

C=CC(OC(=O)CC)c1ccc(OC(=O)CC)c(OC)c1 (racemic) [Compound 3, (rac)-propionic acid 1-(4-propionoxy-3-methoxyphenyl)-allyl ester]
sensation imparted by mouthwash base (oral cavity; 100 ppm compound): warm/hot, spicy and pungent sensation

C=CC(OC(=O)CC)c1ccc(OC(=O)CC)cc1 (racemic) [Compound 4, (rac)-propionic acid 1-(4-propionoxy-phenyl)-allyl ester]
sensation imparted by mouthwash base (oral cavity; 100 ppm compound): warm/hot, spicy and pungent sensation

C=CC(OC(=O)C(C)C)c1ccc(OC(=O)C(C)C)cc1 (racemic) [Compound 5, (rac)-isobutyric acid 1-(4-isobutyryloxy-phenyl)-allyl ester]
sensation imparted by mouthwash base (oral cavity; 100 ppm compound): warm/hot, spicy and pungent sensation

CCC(OC(C)=O)c1ccc(OC(C)=O)cc1 (racemic) [Compound 6, (rac-)-acetic acid 1-(4-acetoxy-phenyl)-propyl ester]
character of mayonnaise base (oral cavity): warm/hot, spicy and pungent character
sensation imparted by mouthwash base (oral cavity; 100 ppm compound): warm/hot, spicy and pungent sensation
character of toothpaste base (oral cavity; 100 ppm compound): warm/hot, spicy and pungent character
character of pizza snack (potato chips) (oral cavity; potato chips with pizza flavor, dusted with 1000 ppm compound): warm/hot, peppery and pungent character
character of sour cream (oral cavity): warm/hot, spicy and pungent character without a lingering effect
character of vegetable dip (oral cavity): warm/hot, peppery and pungent character without any lingering effect

CCC(OC(C)=O)c1ccc(OC(C)=O)c(OC)c1 (racemic) [Compound 7, (rac)-acetic acid 1-(4-acetoxy-3-methoxy-phenyl)-propyl ester]
flavor of cordial base (oral cavity; 50 Proof cordial base with cinnamon flavor 0.2% by weight, 100 ppm compound): enhanced warm /hot, pungent flavor
character of mayonnaise base (oral cavity): warm/hot, spicy and pungent character
sensation imparted by mouthwash base (oral cavity; 100 ppm compound): warm/hot, spicy and pungent sensation
character of toothpaste base (oral cavity; 100 ppm compound): warm/hot, spicy and pungent character
character of sour cream (oral cavity): warm/hot, spicy and pungent character without a lingering effect
character of vegetable dip (oral cavity): warm/hot, peppery and pungent character without any lingering effect

C=CCC(OC(C)=O)c1ccc(OC(C)=O)cc1 (racemic) [Compound 9, (rac)-acetic acid 1-(4-acetoxyphenyl)-3-butenyl ester]
character of mayonnaise base (oral cavity): warm/hot, spicy and pungent character
sensation imparted by mouthwash base (oral cavity; 100 ppm compound): warm/hot, spicy and pungent sensation
character of onion dip (oral cavity; onion soup mix with regular fat sour cream, 1000 ppm compound): warm/hot, peppery and pungent character without a lingering effect
character of toothpaste base (oral cavity; 100 ppm compound): warm/hot, spicy and pungent character
character of sour cream (oral cavity): warm/hot, spicy and pungent character without a lingering effect
character of vegetable dip (oral cavity): warm/hot, peppery and pungent character without any lingering effect

From patent US6476252B1, “Flavorant compositions” (Givaudan Roure (International) SA, priority 1997, dated 2002)
